In the experiment the target is T1, VHL (VCB E3 ligase complex) (Homo sapiens, UniProt P40337).
T1 construct: VCB complex (VHL·EloB·EloC); with Elongin B, Elongin C
The experiment is described as follows: fluorescence polarization; ternary complex with BCL-xL by native MS. The class given is binding.

Consider one compound from publication PMC12917756, “Unveiling BCL-xL-specific PROTAC efficiency and dissociation pathways using native mass spectrometry” (Chemical Science, 2026).

T1 sequence (P40337 whole entry): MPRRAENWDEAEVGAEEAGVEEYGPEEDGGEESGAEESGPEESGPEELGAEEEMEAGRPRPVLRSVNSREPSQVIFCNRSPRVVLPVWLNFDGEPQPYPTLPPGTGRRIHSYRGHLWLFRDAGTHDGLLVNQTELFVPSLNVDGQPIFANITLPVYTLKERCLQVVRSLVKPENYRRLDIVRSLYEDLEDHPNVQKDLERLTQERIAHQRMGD
T1 sequence (Q15370 whole entry partner): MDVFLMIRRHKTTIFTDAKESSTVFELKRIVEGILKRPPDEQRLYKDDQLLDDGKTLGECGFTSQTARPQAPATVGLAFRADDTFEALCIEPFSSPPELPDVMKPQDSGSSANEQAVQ
T1 sequence (Q15369 whole entry partner): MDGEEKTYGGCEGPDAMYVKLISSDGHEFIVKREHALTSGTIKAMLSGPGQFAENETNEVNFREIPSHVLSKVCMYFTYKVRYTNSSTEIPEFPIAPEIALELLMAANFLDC

One may read the IC50 as the midpoint of a concentration-inhibition curve. In turn, `Cc1ncsc1-c1ccc([C@H](C)NC(=O)[C@@H]2C[C@@H](O)CN2C(=O)[C@@H](NC(=O)CCCCCC(=O)N2CCN(CC[C@H](CSc3ccccc3)Nc3ccc(S(=O)(=O)NC(=O)c4ccc(N5CCN(CC6=C(c7ccc(Cl)cc7)CCC(C)(C)C6)CC5)cc4)cc3S(=O)(=O)C(F)(F)F)CC2)C(C)(C)C)cc1` [DT2216] gave an IC50 of 10.6 µM.
